Experimental data: ChEMBL document CHEMBL2163202, “Enhanced Ca2+ entry, ceramide formation, and apoptotic death of erythrocytes triggered by plumbagin” (J Nat Prod, 2012)
Activity calls are given as the source filed them. No cut-off for these calls is given here.

Assays:
Erythrocyte [1] = experiment: Stimulation of ceramide formation in human erythrocytes at 2 uM after 48 hrs by FITC-labeled anticeramide antibody method; assay type: functional, cell-based
Erythrocyte [2] = experiment: Induction of eryptosis in human erythrocytes assessed as cell membrane scrambling at 1 uM after 48 hrs by annexin V staining-based FACS analysis in nominal absence of extracellular Ca2+; assay type: functional
Erythrocyte [3] = experiment: Induction of eryptosis in human erythrocytes assessed as cell membrane scrambling at 1 uM after 48 hrs by annexin V staining-based FACS analysis in presence of extracellular Ca2+; assay type: functional
Erythrocyte [4] = experiment: Hemolysis in human erythrocytes assessed as release of hemoglobin at 1 uM after 48 hrs by spectrophotometry; assay type: functional, cell-based
Erythrocyte [5] = experiment: Induction of eryptosis in human erythrocytes assessed as phosphatidylserine exposure up to 2 uM after 48 hrs by annexin V staining-based FACS analysis; assay type: functional, cell-based
Erythrocyte [6] = experiment: Induction of eryptosis in human erythrocytes assessed as phosphatidylserine exposure at 1 uM after 48 hrs by annexin V staining-based FACS analysis; assay type: functional, cell-based
Erythrocyte [7] = experiment: Induction of eryptosis in human erythrocytes assessed as reduction in cell volume measuring forward scatter up to 2 uM after 48 hrs by FACS analysis; assay type: functional, cell-based
Erythrocyte [8] = experiment: Hemolysis in human erythrocytes assessed as release of hemoglobin up to 2 uM after 48 hrs by spectrophotometry; assay type: functional, cell-based
Erythrocyte [9] = experiment: Induction of eryptosis in human erythrocytes assessed as increase in cytosolic Ca2+ at 0.5 uM after 48 hrs by Fluo-3/AM-based FACS analysis; assay type: functional, cell-based
Erythrocyte [10] = experiment: Induction of eryptosis in human erythrocytes assessed as increase in cytosolic Ca2+ up to 2 uM after 48 hrs by Fluo-3/AM-based FACS analysis; assay type: functional, cell-based
Erythrocyte [11] = experiment: Induction of eryptosis in human erythrocytes assessed as reduction in cell volume measuring forward scatter at 1.5 uM after 48 hrs by FACS analysis; assay type: functional, cell-based

## CC1=CC(=O)c2c(O)cccc2C1=O
Erythrocyte [1]
  Activity: Active
Erythrocyte [2]
  Activity: inactive
Erythrocyte [3]
  Activity: Active
Erythrocyte [4]
  Activity: Active
Erythrocyte [5]
  Activity: Active
Erythrocyte [6]
  Activity: Active
Erythrocyte [7]
  Activity: Active
Erythrocyte [8]
  Activity: Active
Erythrocyte [9]
  Activity: Active
Erythrocyte [10]
  Activity: Active
Erythrocyte [11]
  Activity: Active
